In patent US7816338B2, “Compositions and methods for inhibiting car gene expression by RNA interference” (Sumitomo Chemical Company, Limited, priority 2007, dated 2010):

Assays:
liver [1] = experiment: Liver wet weight in rats (Example 10); assay type: in vivo, rat; details: group treated with PB and control siRNA (Cont)
Procedure: The wet weight of the liver in the rats to which siRNA (CAR) or control siRNA (Cont) was administered by the methods described in (1) to (3) of Example 2 is measured by the method described in (5) of Example 2. As a result, the liver weight is increased in the group treated with PB and control siRNA (Cont) as compared to the case of the untreated animal group.

liver [2] = experiment: Centrilobular cell hypertrophy, histopathological examination of the liver (Example 11); assay type: in vivo, rat; details: rats; group treated with PB and control siRNA (Cont)
Procedure: Histopathological examination of the liver in the rats to which siRNA (CAR) or control siRNA (Cont) was administered by the methods described in (1) to (3) of Example 2 is performed by the method described in (5) of Example 2. As a result, centrilobular cell hypertrophy is increased in the group treated with PB and control siRNA (Cont) as compared to the case of the untreated animal group.

[3] = system: CYP2B dependent pentoxyresorufin O-depentylation activity; experiment: CYP2B dependent PROD (pentoxyresorufin O-depentylation activity) in hepatocytes (Example 6); assay type: cell-based, rat; details: PB and control siRNA (Cont) treatment; 72 hours after siRNA
Procedure: Then, the culture medium is replaced with 2 mL of William's culture medium containing 7 μM of 7-pentoxyresorufin and 7 μM of dicumarol. The culture medium is incubated at 37° C. for 4 hours, and then the culture medium is recovered. The cells are mixed with 1000 U of β-glucronidase (bovine liver-derived) and 50 mM of sodium acetate solution (pH 5), which is left at 37° C. for 3 hours. Measurement of pentoxyresorufin O-depentylation activity is performed by measuring the amount of fluorescence per unit solution. Further, the measurement is carried out at an excitation wavelength of 530 nm and a fluorescence wavelength of 585 nm using a fluorophotometer (F-4010, manufactured by Hitachi). In evaluation of the results, the total amount of protein in the cells in which the substrate was treated is measured by the Protein assay kit (Bio-Rad) and the production amount of resorufin per unit protein (amount of pentoxyresorufin O-depentylation) is calculated on the basis of the calibration curve of resorufin. […] As a result, pentoxyresorufin O-depentylation activity is enhanced by PB and control siRNA (Cont) treatment as compared to the case of the untreated cells.

CYP2B1 mRNA = experiment: CYP2B1 gene expression in PB-treated primary hepatocyte cultured cells (Example 5 (3))

CCC1(c2ccccc2)C(=O)NC(=O)NC1=O [PB, Phenobarbital]
liver weight as compared to the untreated animal group (liver [1]): increased | centrilobular cell hypertrophy as compared to the untreated animal group (liver [2]): increased | pentoxyresorufin O-depentylation activity as compared to the untreated cells [3]: enhanced | CYP2B1 mRNA expression increase compared to cells untreated with PB (CYP2B1 mRNA; cells treated with PB (50 nM) and control siRNA(Cont)): about fivefold | CYP2B1 expression increase by PB treatment compared to cells untreated with compound (CYP2B1 mRNA; cells which inhibited CAR (siRNA(CAR)), PB 50 nM): about twofold
